# Measured values reported in the supplement of paper PMC10307832.
# Key:
# Experiment in all cases: relative viability (nuclei count vs DMSO), 5 days (fraction); higher = more cells survive
# PC-3 [JPC-3] = tested on: PC-3 [JPC-3]
# Outline: (§1)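 Lung cancer cell lines in 1536-well plates got either a single drug or a fixed anchor-drug dose together with five library-drug doses (not always all listed) in √10 steps, by pin tool, on the day after seeding. Nuclei were counted after 5 days, and relative viability is the treated-to-vehicle ratio of nuclei counts. Values are medians of duplicate plates.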
# ChaGo-K-1 = tested on: ChaGo-K-1
# Outline: as §1
# H3255 = tested on: H3255
# Outline: as §1
# NCI-H1666 = tested on: NCI-H1666
# Outline: as §1
# EMC-BAC-2 = tested on: EMC-BAC-2
# Outline: as §1
# NCI-H1563 = tested on: NCI-H1563
# Outline: as §1
# NCI-H1975 = tested on: NCI-H1975
# Outline: as §1
# HCC-366 = tested on: HCC-366
# Outline: as §1
# NCI-H520 = tested on: NCI-H520
# Outline: as §1
# NCI-H596 = tested on: NCI-H596
# Outline: as §1
# LOU-NH91 = tested on: LOU-NH91
# Outline: as §1
# COR-L 105 = tested on: COR-L 105
# Outline: as §1
# EKVX = tested on: EKVX
# Outline: as §1
# NCI-H23 = tested on: NCI-H23
# Outline: as §1
# A-427 = tested on: A-427
# Outline: as §1
# NCI-H441 = tested on: NCI-H441
# Outline: as §1
# NCI-H1755 = tested on: NCI-H1755
# Outline: as §1
# NCI-H1734 = tested on: NCI-H1734
# Outline: as §1
compound,measurement,setting,value
Cc1sc2c(c1C)C(c1ccc(Cl)cc1)=N[C@@H](CC(=O)OC(C)(C)C)c1nnc(C)n1-2 [JQ1] + CC(C)C[C@H](NC(=O)[C@H](Cc1ccccc1)NC(=O)c1cnccn1)B(O)O [Bortezomib] (partner 0.002 µM),relative viability,PC-3 [JPC-3]; first compound 0.04 µM,0.845
same,relative viability,PC-3 [JPC-3]; first compound 0.1265 µM,0.81
same,relative viability,PC-3 [JPC-3]; first compound 0.4 µM,0.977
same,relative viability,PC-3 [JPC-3]; first compound 1.265 µM,0.675
same,relative viability,PC-3 [JPC-3]; first compound 4 µM,0.352
same,relative viability,ChaGo-K-1; first compound 0.04 µM,1.09
same,relative viability,ChaGo-K-1; first compound 0.4 µM,1.06
same,relative viability,ChaGo-K-1; first compound 1.265 µM,0.493
same,relative viability,ChaGo-K-1; first compound 4 µM,0.373
same,relative viability,H3255; first compound 0.04 µM,0.628
same,relative viability,H3255; first compound 0.1265 µM,0.553
same,relative viability,H3255; first compound 0.4 µM,0.747
same,relative viability,H3255; first compound 1.265 µM,0.306
same,relative viability,H3255; first compound 4 µM,0.278
same,relative viability,NCI-H1666; first compound 0.04 µM,0.658
same,relative viability,NCI-H1666; first compound 0.1265 µM,0.698
same,relative viability,NCI-H1666; first compound 0.4 µM,0.543
same,relative viability,NCI-H1666; first compound 1.265 µM,0.428
same,relative viability,NCI-H1666; first compound 4 µM,0.443
same,relative viability,EMC-BAC-2; first compound 0.04 µM,1.09
same,relative viability,EMC-BAC-2; first compound 0.1265 µM,0.961
same,relative viability,EMC-BAC-2; first compound 0.4 µM,0.91
same,relative viability,EMC-BAC-2; first compound 1.265 µM,0.621
same,relative viability,EMC-BAC-2; first compound 4 µM,0.544
same,relative viability,NCI-H1563; first compound 0.04 µM,0.909
same,relative viability,NCI-H1563; first compound 0.1265 µM,0.619
same,relative viability,NCI-H1563; first compound 0.4 µM,0.642
same,relative viability,NCI-H1563; first compound 1.265 µM,0.544
same,relative viability,NCI-H1563; first compound 4 µM,0.621
same,relative viability,NCI-H1975; first compound 0.04 µM,0.355
same,relative viability,NCI-H1975; first compound 0.1265 µM,0.258
same,relative viability,NCI-H1975; first compound 0.4 µM,0.317
same,relative viability,NCI-H1975; first compound 1.265 µM,0.177
same,relative viability,NCI-H1975; first compound 4 µM,0.152
same,relative viability,HCC-366; first compound 0.04 µM,1.08
same,relative viability,HCC-366; first compound 0.4 µM,1.03
same,relative viability,HCC-366; first compound 1.265 µM,0.585
same,relative viability,HCC-366; first compound 4 µM,0.23
same,relative viability,NCI-H520; first compound 0.04 µM,0.527
same,relative viability,NCI-H520; first compound 0.1265 µM,0.242
same,relative viability,NCI-H520; first compound 0.4 µM,0.157
same,relative viability,NCI-H520; first compound 1.265 µM,0.167
same,relative viability,NCI-H520; first compound 4 µM,0.136
same,relative viability,NCI-H596; first compound 0.04 µM,0.945
same,relative viability,NCI-H596; first compound 0.1265 µM,0.781
same,relative viability,NCI-H596; first compound 0.4 µM,0.955
same,relative viability,NCI-H596; first compound 1.265 µM,0.673
same,relative viability,NCI-H596; first compound 4 µM,0.344
same,relative viability,LOU-NH91; first compound 0.04 µM,0.525
same,relative viability,LOU-NH91; first compound 0.1265 µM,0.476
same,relative viability,LOU-NH91; first compound 0.4 µM,0.428
same,relative viability,LOU-NH91; first compound 1.265 µM,0.3
same,relative viability,LOU-NH91; first compound 4 µM,0.327
same,relative viability,COR-L 105; first compound 0.04 µM,0.584
same,relative viability,COR-L 105; first compound 0.1265 µM,0.348
same,relative viability,COR-L 105; first compound 0.4 µM,0.3
same,relative viability,COR-L 105; first compound 1.265 µM,0.292
same,relative viability,COR-L 105; first compound 4 µM,0.342
same,relative viability,EKVX; first compound 0.04 µM,0.981
same,relative viability,EKVX; first compound 0.1265 µM,0.842
same,relative viability,EKVX; first compound 0.4 µM,1.16
same,relative viability,EKVX; first compound 1.265 µM,0.749
same,relative viability,EKVX; first compound 4 µM,0.704
same,relative viability,NCI-H23; first compound 0.04 µM,1.07
same,relative viability,NCI-H23; first compound 0.1265 µM,0.86
same,relative viability,NCI-H23; first compound 0.4 µM,0.666
same,relative viability,NCI-H23; first compound 1.265 µM,0.241
same,relative viability,NCI-H23; first compound 4 µM,0.332
same,relative viability,A-427; first compound 0.04 µM,0.969
same,relative viability,A-427; first compound 0.1265 µM,1.04
same,relative viability,A-427; first compound 0.4 µM,0.979
same,relative viability,A-427; first compound 1.265 µM,0.682
same,relative viability,A-427; first compound 4 µM,0.474
same,relative viability,NCI-H441; first compound 0.04 µM,0.611
same,relative viability,NCI-H441; first compound 0.1265 µM,0.363
same,relative viability,NCI-H441; first compound 0.4 µM,0.443
same,relative viability,NCI-H441; first compound 1.265 µM,0.189
same,relative viability,NCI-H441; first compound 4 µM,0.174
same,relative viability,NCI-H1755; first compound 0.04 µM,0.923
same,relative viability,NCI-H1755; first compound 0.1265 µM,0.807
same,relative viability,NCI-H1755; first compound 0.4 µM,0.995
same,relative viability,NCI-H1755; first compound 1.265 µM,0.618
same,relative viability,NCI-H1755; first compound 4 µM,0.44
same,relative viability,NCI-H1734; first compound 0.04 µM,0.967
same,relative viability,NCI-H1734; first compound 0.1265 µM,0.788
same,relative viability,NCI-H1734; first compound 0.4 µM,0.878
same,relative viability,NCI-H1734; first compound 1.265 µM,0.597
same,relative viability,NCI-H1734; first compound 4 µM,0.474
